Experimental data from US20110165173A1, “THERAPEUTIC AGENT AND DETECTION REAGENT FOR ARTERIOSCLEROTIC DISEASE WHICH TARGETS FOR SALUSIN” (PROTEINEXPRESS CO., LTD., priority 2007, published 2011).

Test system: ACAT-1 protein expression
Test: ACAT-1 protein expression in human monocyte-derived macrophages during differentiation (Western blotting)
Format: cell-based
Conditions: for ACAT-1 protein expression vs control cells: 0.6 nM
Method: In the Examples below, monocytes were prepared from human peripheral blood and cultured for 7 days so as to have differentiated into macrophages. At such time, salusin-α (0 to 10 nM) and salusin-β (0 to 10 nM) were simultaneously added thereto, and the effects of salusin were examined.
Culture of monocytes obtained from human peripheral blood was performed by a known method. Isolated monocytes were cultured with the addition of RPMI-1640 (15 mL) and then the floating monocytes were subjected to cell counting with a blood cell counting chamber. The cells were seeded on a 6-cm dish so as to result in 4×10^6 cells/2 mL. The monocytes were kept warm at 37° C. in the presence of 5% CO2 for 1 hour such that the cells were allowed to adhere to the dish. The medium was substituted with RPMI-1640 containing 10% human serum, followed by culture for 7 days. The medium was changed every 3 days.
ACAT-1 is an endoplasmic reticulum enzyme that converts intracellular free cholesterol into cholesterol ester. The ACAT-1 gene is important for foaming of macrophages. In order to examine effects of salusin-α and salusin-β on the ACAT-1 expression, the ACAT-1 protein expression was examined by Western blotting.
Monocyte-derived macrophages that had been cultured for 7 days were washed with PBS 3 times, followed by solubilization with the addition of 10% SDS (sodium dodecyl sulfate) (100 μL) to each dish. Each cell extraction solution was scooped up with a cell scraper, followed by pulverization with the use of a 1-mL TERUMO syringe and a 23-G injection needle for fragmentation (shearing). The resultant was centrifuged at 15,000 rpm for 3 minutes (Himac CF15D2 high-speed micro refrigerated centrifuge; Hitach, Ltd.). The supernatant protein concentration was assayed by the bicinchoninic acid (BCA) method (Pierce) and used as a cell extraction solution for Western blotting.
For ACAT-1 protein detection, an anti-human ACAT-1 polyclonal antibody (DM10 donated from Dr. Chang, Dartmouth Medical School) [Chang CCY et al., J Biol Chem. 1995; 270: 29532-29540] prepared by immunizing a rabbit was used as a primary antibody (final concentration: 0.5 μg/mL) for a reaction on a transfer membrane at room temperature for 1 hour. The transfer membrane was washed with PBS-0.1% Tween 20, followed by a reaction with a secondary antibody (anti-rabbit IgG antibody: anti-rabbit IgG donkey antibody conjugated with horseradish peroxidase (HRP) (GE Healthcare Bio-Science)) at room temperature for 1 hour. For a secondary antibody, a stock solution (0.5 μL) was diluted 10,000-fold with PBS-0.1% Tween 20 (5 mL), and the resultant was used. Washing was carried out with PBS-0.1% Tween 20, followed by ACAT-1 protein detection with the use of Lumi-Light Plus (PerkinElmer Life Sciences).
Human peripheral blood monocytes (4×10^6 cells/6-cm dish) were cultured for 7 days in an RPMI-1640 medium (2 mL) containing 10% human serum so as to differentiate into macrophages. In order to examine the salusin dose-dependent effects on the ACAT-1 protein expression, salusin-α or salusin-β was added to the medium at a concentration of 0, 0.2, 0.4, 0.6, 0.8, or 1.0 nM at the beginning of culture. On Day 7 of culture, macrophage cells differentiated from monocytes were washed with PBS and then solubilized in 10% SDS (100 μL), followed by Western blotting with the use of an ACAT-1-specific antibody. […]

| Substance | inhibition of ACAT-1 protein expression (0 to 1.0 nM added at beginning of 7-day culture, concentration-dependent) | ACAT-1 protein expression vs control cells (Day 1, 3, or 5 after seeding) | ACAT-1 protein expression vs control cells (Day 7) | ACAT-1 protein expression level relative to control (0.6 nM (peak level), added at beginning of 7-day culture, attenuated above 0.6 nM) [times] | ACAT-1 protein expression vs control cells (Day 5 or later) |
| --- | --- | --- | --- | --- | --- |
| salusin-α: peptide (SEQ ID NO: 1) comprising 28 amino acid residues, generated by processing from preprosalusin (SGALPPAPAAPRPALRAQRAGPAGPGAK; listed as Homo sapiens) | approximately 40% | not found to significantly differ | significantly inhibited | – | – |
| salusin-β: peptide (SEQ ID NO: 3) comprising 20 amino acid residues, generated by processing from preprosalusin (AIFIFIRWLLKLGHHGRAPP; listed as Homo sapiens) [reference compound] | – | – | – | 2.1 | significantly increased |
